Results as given in patent US6852759B2, “Process for the synthesis of trans-alkenoic acids, use thereof” (priority 2002, dated 2005).

Legend:
Assay type in all cases: in vivo
[1] = system: CCl4 induced hepatic injury in rats; test: Hepatoprotective activity, curative study, CCl4; settings: TCA alone 100 mg/kg p.o., no CCl4, curative study
[2] = system: D-Galactosamine (Gal N) induced hepatic injury in rats; test: Hepatoprotective activity, prophylactic study, D-Galactosamine
[3] = system: CCl4 induced hepatic injury in rats; test: Hepatoprotective activity, prophylactic study, CCl4
[4] = 12.5 mg/kg p.o. + Gal N, prophylactic
[5] = 25 mg/kg p.o. + Gal N, prophylactic
[6] = 50 mg/kg p.o. + Gal N, prophylactic
[7] = TCA alone 100 mg/kg p.o., no Gal N, prophylactic study
[8] = 12.5 mg/kg p.o. + CCl4, prophylactic
[9] = 25 mg/kg p.o. + CCl4, prophylactic
[10] = 50 mg/kg p.o. + CCl4, prophylactic
[11] = 100 mg/kg p.o. + CCl4, prophylactic
[12] = TCA alone 100 mg/kg p.o., no CCl4, prophylactic study

For CCCCCCCC/C=C/CCCCCCCCCCCCCC(=O)O [TCA, t-Tetracos-15-enoic acid], the “Serum ALP” value [1] was 25.84 ± 2.32 μmole of p-nitrophenol formed/min/L, the “Serum Bilirubin” value [1] was 0.16 ± 0.02 mg % and the “Serum GOT” value [1] was 82.13 ± 10.59 Units. The “Serum GPT” value [1] was 92.18 ± 15.75 Units, the “Serum Triglycerides” value [1] was 6.98 ± 0.86 mg % and the “Serum ALP” value [2, 4] was 47.07 ± 2.98 μmole of p-nitrophenol formed/min/L. For the same molecule, the “Serum ALP, hepatoprotective activity percent” value [2, 4] was “(30.88 ± 7.77) percent”, the “Serum Bilirubin” value [2, 4] was 0.56 ± 0.03 mg % and the “Serum Bilirubin, hepatoprotective activity percent” value [2, 4] was “(39.49 ± 4.59) percent”. The “Serum GOT” value [2, 4] was 613.20 ± 65.19 Units, the “Serum GOT, hepatoprotective activity percent” value [2, 4] was “(34.60 ± 7.57) percent” and the “Serum GPT” value [2, 4] was 743.62 ± 66.83 Units. The “Serum GPT, hepatoprotective activity percent” value [2, 4] was “(39.30 ± 6.25) percent”, the “Serum Triglycerides” value [2, 4] was 26.49 ± 1.88 mg % and the “Serum Triglycerides, hepatoprotective activity percent” value [2, 4] was “(37.38 ± 6.18) percent”. The “Serum ALP” value [2, 5] was 40.49 ± 2.29 μmole of p-nitrophenol formed/min/L, the “Serum ALP, hepatoprotective activity percent” value [2, 5] was “(51.62 ± 6.31) percent” and the “Serum Bilirubin” value [2, 5] was 0.44 ± 0.05 mg %. The “Serum Bilirubin, hepatoprotective activity percent” value [2, 5] was “(58.00 ± 3.86) percent”, the “Serum GOT” value [2, 5] was 505.26 ± 29.63 Units and the “Serum GOT, hepatoprotective activity percent” value [2, 5] was “(47.68 ± 3.99) percent”. The “Serum GPT” value [2, 5] was 635.11 ± 54.67 Units, the “Serum GPT, hepatoprotective activity percent” value [2, 5] was “(49.35 ± 5.16) percent” and the “Serum Triglycerides” value [2, 5] was 23.58 ± 2.02 mg %. The “Serum Triglycerides, hepatoprotective activity percent” value [2, 5] was “(46.97 ± 6.67) percent”, the “Serum ALP” value [2, 6] was 34.94 ± 1.43 μmole of p-nitrophenol formed/min/L and the “Serum ALP, hepatoprotective activity percent” value [2, 6] was “(66.91 ± 3.92) percent”. For the same molecule, the “Serum Bilirubin” value [2, 6] was 0.36 ± 0.02 mg %, the “Serum Bilirubin, hepatoprotective activity percent” value [2, 6] was “(70.76 ± 2.78) percent” and the “Serum GOT” value [2, 6] was 406.05 ± 25.82 Units. The “Serum GOT, hepatoprotective activity percent” value [2, 6] was “(61.05 ± 3.48) percent”, the “Serum GPT” value [2, 6] was 413.53 ± 23.94 Units and the “Serum GPT, hepatoprotective activity percent” value [2, 6] was “(70.34 ± 2.25) percent”. For the same molecule, the “Serum Triglycerides” value [2, 6] was 21.37 ± 1.51 mg %, the “Serum Triglycerides, hepatoprotective activity percent” value [2, 6] was “(54.25 ± 4.97) percent” and the “Serum ALP” value [2, 7] was 19.84 ± 1.58 μmole of p-nitrophenol formed/min/L. For the same molecule, the “Serum Bilirubin” value [2, 7] was 0.20 ± 0.02 mg %, the “Serum GOT” value [2, 7] was 122.47 ± 11.84 Units and the “Serum GPT” value [2, 7] was 95.22 ± 8.74 Units. The “Serum Triglycerides” value [2, 7] was 8.79 ± 0.55 mg %, the “Serum ALP” value [3, 8] was 45.25 ± 2.37^NS μmole of p-nitrophenol formed/min/L and the “Serum ALP, hepatoprotective activity percent” value [3, 8] was “(26.32 ± 6.55) percent”. For the same molecule, the “Serum Bilirubin” value [3, 8] was 0.47 ± 0.01 mg %, the “Serum Bilirubin, hepatoprotective activity percent” value [3, 8] was “(47.98 ± 2.02) percent” and the “Serum GOT” value [3, 8] was 695.16 ± 67.28 Units. The “Serum GOT, hepatoprotective activity percent” value [3, 8] was “(33.87 ± 7.99) percent”, the “Serum GPT” value [3, 8] was 992.34 ± 73.25 Units and the “Serum GPT, hepatoprotective activity percent” value [3, 8] was “(41.52 ± 4.97) percent”. For the same molecule, the “Serum Triglycerides” value [3, 8] was 13.51 ± 0.51^NS mg %, the “Serum Triglycerides, hepatoprotective activity percent” value [3, 8] was “(26.40 ± 7.84) percent” and the “Serum ALP” value [3, 9] was 39.48 ± 2.46 μmole of p-nitrophenol formed/min/L. The “Serum ALP, hepatoprotective activity percent” value [3, 9] was “(43.28 ± 7.81) percent”, the “Serum Bilirubin” value [3, 9] was 0.42 ± 0.01 mg % and the “Serum Bilirubin, hepatoprotective activity percent” value [3, 9] was “(55.33 ± 2.86) percent”. The “Serum GOT” value [3, 9] was 674.44 ± 53.20 Units, the “Serum GOT, hepatoprotective activity percent” value [3, 9] was “(36.33 ± 6.32) percent” and the “Serum GPT” value [3, 9] was 924.39 ± 39.82 Units. The “Serum GPT, hepatoprotective activity percent” value [3, 9] was “(46.10 ± 2.70) percent”, the “Serum Triglycerides” value [3, 9] was 12.11 ± 0.70^NS mg % and the “Serum Triglycerides, hepatoprotective activity percent” value [3, 9] was “(47.72 ± 11.33) percent”. The “Serum ALP” value [3, 10] was 35.19 ± 2.90 μmole of p-nitrophenol formed/min/L, the “Serum ALP, hepatoprotective activity percent” value [3, 10] was “(56.81 ± 9.15) percent” and the “Serum Bilirubin” value [3, 10] was 0.34 ± 0.01 mg %. The “Serum Bilirubin, hepatoprotective activity percent” value [3, 10] was “(67.67 ± 2.30) percent”, the “Serum GOT” value [3, 10] was 543.99 ± 79.93 Units and the “Serum GOT, hepatoprotective activity percent” value [3, 10] was “(51.82 ± 9.94) percent”. For the same molecule, the “Serum GPT” value [3, 10] was 636.69 ± 44.49 Units, the “Serum GPT, hepatoprotective activity percent” value [3, 10] was “(65.66 ± 3.02) percent” and the “Serum Triglycerides” value [3, 10] was 11.89 ± 0.75^NS mg %. For the same molecule, the “Serum ALP” value [3, 11] was 30.14 ± 2.54 μmole of p-nitrophenol formed/min/L, the “Serum ALP, hepatoprotective activity percent” value [3, 11] was “(72.92 ± 8.07) percent” and the “Serum Bilirubin” value [3, 11] was 0.26 ± 0.02 mg %. For the same molecule, the “Serum Bilirubin, hepatoprotective activity percent” value [3, 11] was “(79.04 ± 3.57) percent”, the “Serum GOT” value [3, 11] was 432.08 ± 37.38 Units and the “Serum GOT, hepatoprotective activity percent” value [3, 11] was “(65.10 ± 4.50) percent”. The “Serum GPT” value [3, 11] was 419.72 ± 17.60 Units, the “Serum GPT, hepatoprotective activity percent” value [3, 11] was “(80.39 ± 1.19) percent” and the “Serum Triglycerides” value [3, 11] was 11.20 ± 0.68^NS mg %. For the same molecule, the “Serum Triglycerides, hepatoprotective activity percent” value [3, 11] was “(61.75 ± 1.44) percent”, the “Serum ALP” value [3, 12] was 23.15 ± 2.92 μmole of p-nitrophenol formed/min/L and the “Serum Bilirubin” value [3, 12] was 0.17 ± 0.02 mg %. The “Serum GOT” value [3, 12] was 110.53 ± 25.55 Units, the “Serum GPT” value [3, 12] was 102.66 ± 28.41 Units and the “Serum Triglycerides” value [3, 12] was 6.98 ± 0.79 mg %.
